Data taken from patent US20240099214A1, “PLANT DEFENCE GENE EXPRESSION” (UPL Corporation Limited, priority 2021, published 2024).
Entries after “also recorded” stand apart in the source; their conditions may differ.

How the values were obtained:
Type in all cases: in vivo, Tomato ecotype corbarino
set of defense genes = assay: qRT-PCR gene expression of the set of tested defence genes in tomato leaves (relative to a-tubulin, compared to water treatment); conditions: for gene expression of the set of defense genes compared to TSWV treatment: 48 hours from the treatment, tomato leaves
Method: (§1) Tomato ecotype “corbarino” reported to be susceptible to TSWV infection was used in the experiment. Plants were grown in pots in a climatic chamber with a photoperiod of 16/8 hour at 25° C.
(§2) The viral strain (TSWV PV PV-0393) was utilized in the experiment. The virus was mechanically inoculated and propagated on tomato “corbarino”. The inoculum was prepared in an ice-cooled mortar grounding 1 gr of infected tomato tissue in 10 ml of Na-phosphate buffer 0.01M. The fresh prepared inoculum was stored in ice before use. Tomato plants at BBCH16 were dusted with Carborundum 600 mesh and selected leaves were rubbed with some droplets of inoculum. After 5 min. plants were sprayed with sterile water to remove the excess of inoculum and preserve the cell turgor.
(§3) Four treatments were compared: i) Mock inoculated; ii) TSWV; iii) 0.25% Laminarin; iv) 0.25% Laminarin+TSWV. In the last treatment the virus was inoculated 24 hrs after the laminarin application.
Total RNA was extracted from systemic infected tomato leaves by using the Quick-RNA Plant Kit (Zymo Research) following the manufacturer instructions. […] The RNA concentration was quantified by measuring the absorbance at 260 nm using a Nanodrop 2000 (Thermofisher). The purity of all of the RNA samples was assessed at an absorbance ratio of OD260/280 and OD260/230, while its structural integrity was checked by agarose gel electrophoresis. […]
qPCR reactions were performed with BioRad (Applied Biosystems, Foster City, CA, USA) using SYBR R Green. […] Reactions were run using the cycling parameter described previously (Reid et al., 2006) and the qPCR data were analyzed by the Ct method (Pfaffl, 2001). In order to analyze the qPCR data, a-tubulin gene was used as housekeeping to determine the relative expression level of the other genes analyzed in this work. […] The corresponding qPCR efficiencies (E) were calculated for every primer pair with the software 7300 System SDS software (Applied Biosystems, Foster City, CA, USA) according to the equation E=(10−1/slope−1)×100 (Rutledge and Stewart, 2008). […]

[1] = test system: Nac transcription factor 29-like (gene 8, Solyc05g007770.2); assay: qRT-PCR expression of gene 8 in tomato leaves; design: key: relative expression normalized to a-tubulin housekeeping gene
Method: as §1, §2, §3
(§4) Total RNA was extracted from systemic infected tomato leaves by using the Quick-RNA Plant Kit (Zymo Research) following the manufacturer instructions. The extractions were carried out using three plants after 12 h, 24 h, 48 h, 72 h, 7 days after inoculation. Leaves were instantly frozen in liquid nitrogen after cutting to avoid any deterioration of the sample as well as any defense reaction. The RNA concentration was quantified by measuring the absorbance at 260 nm using a Nanodrop 2000 (Thermofisher). The purity of all of the RNA samples was assessed at an absorbance ratio of OD260/280 and OD260/230, while its structural integrity was checked by agarose gel electrophoresis. Only high-quality RNA with OD 260/280 and OD 260/230>2 was used for subsequent steps. Single-stranded cDNA was synthesized from 1 μg of total RNA using an iScript™ Select cDNA Synthesis Kit and random hexamers as primers (Bio-Rad, Milan, Italy), according to the manufacturer's instructions. Three biological replicates were created from the 3 leaves collected to test 15 genes. Alpha tubulin was used as reference gene.
(§5) qPCR reactions were performed with BioRad (Applied Biosystems, Foster City, CA, USA) using SYBR R Green. Each reaction was performed in 20 μl containing 10 μl of 2× Power SYBR Green PCR Master Mix (Life Technologies), 0.2-0.3 μM primers and cDNA samples diluted 1:20. Each qPCR reaction was performed in triplicate. Reactions were run using the cycling parameter described previously (Reid et al., 2006) and the qPCR data were analyzed by the Ct method (Pfaffl, 2001). In order to analyze the qPCR data, a-tubulin gene was used as housekeeping to determine the relative expression level of the other genes analyzed in this work. For the determination of qPCR efficiency of each primer pairs, a standard curve was performed using the following cDNA dilutions: 1:4, 1:16, 1:64; 1:256 and 1:1024. Every measurement was made in triplicate. The corresponding qPCR efficiencies (E) were calculated for every primer pair with the software 7300 System SDS software (Applied Biosystems, Foster City, CA, USA) according to the equation E=(10−1/slope−1)×100 (Rutledge and Stewart, 2008).
(§6) The significance of the differences between the gene expressions levels were compared by one-way ANOVA (p=0.01) and the means were separated by Tukey post-hoc test using SPSS ver.26 ([…]).

[2] = test system: Regulator of gene silencing (gene 14, AY642285.1); assay: qRT-PCR expression of gene 14 in tomato leaves; design: key to RQ1 / RQ2 / RQ3 / RQ mean: relative expression normalized to a-tubulin housekeeping gene; conditions: for gene 14 expression compared to TSWV treatment: 48 hr; for gene 14 expression: 72 hr
Method: as §1, §2, §3, §4, §5, §6

[3] = Gene_14, 12 hr, treatment Laminarin
[4] = Gene_14, 12 hr, treatment Laminarin + virus
[5] = Gene_14, 24 hr, treatment Laminarin
[6] = Gene_14, 24 hr, treatment Laminarin + virus
[7] = Gene_14, 48 hr, treatment Laminarin
[8] = Gene_14, 48 hr, treatment Laminarin + virus
[9] = Gene_14, 72 hr, treatment Laminarin
[10] = Gene_14, 72 hr, treatment Laminarin + virus

**Q.** With laminarin as the substance, how does the “gene expression of the set of defense genes compared to TSWV treatment” value (set of defense genes; 0.25% laminarin + TSWV inoculated 24 hrs after laminarin application) read?
**A.** Its value is “activates the set of defense genes at higher level compared to TSWV”.

**Q.** What about the “gene expression of the set of defense genes compared to TSWV treatment” value (set of defense genes; 0.25% laminarin alone) of the same substance?
**A.** Its value is “activates the set of defense genes at higher level compared to TSWV”.

**Q.** What about the “gene expression of the tested genes, overall” value (set of defense genes; 72 hr) of the same substance?
**A.** Its value is “clear evidence of the laminarin effects”.

**Q.** What about the RQ1 ([1]; 12 hr, Laminarin + virus) of the same substance?
**A.** Its RQ1 is 0.9892.

**Q.** And the RQ2 ([1]; 12 hr, Laminarin + virus)?
**A.** The RQ2 was 10.375.

**Q.** And the RQ3 ([1]; 12 hr, Laminarin + virus)?
**A.** Its RQ3 is 10.132.

**Q.** And the RQ mean ([1]; 12 hr, Laminarin + virus)?
**A.** The RQ mean was 10.133.

**Q.** What about the RQ1 ([1]; 12 hr, Laminarin alone) of the same substance?
**A.** Its RQ1 is 0.8695.

**Q.** What about the RQ2 ([1]; 12 hr, Laminarin alone) of the same substance?
**A.** Its RQ2 is 0.9166.

**Q.** And the RQ3 ([1]; 12 hr, Laminarin alone)?
**A.** Its RQ3 is 10.042.

**Q.** And the RQ mean ([1]; 12 hr, Laminarin alone)?
**A.** The RQ mean was 0.9301.

**Q.** And the RQ1 ([1]; 24 hr, Laminarin + virus)?
**A.** Its RQ1 is 11.335.

**Q.** What about the RQ2 ([1]; 24 hr, Laminarin + virus) of the same substance?
**A.** The RQ2 was 11.617.

**Q.** What about the RQ3 ([1]; 24 hr, Laminarin + virus) of the same substance?
**A.** Its RQ3 is 0.9361.

**Q.** And the RQ mean ([1]; 24 hr, Laminarin + virus)?
**A.** Its RQ mean is 10.771.

**Q.** And the RQ1 ([1]; 24 hr, Laminarin alone)?
**A.** The RQ1 was 12.571.

**Q.** What about the RQ2 ([1]; 24 hr, Laminarin alone) of the same substance?
**A.** The RQ2 was 13.299.

**Q.** What about the RQ3 ([1]; 24 hr, Laminarin alone) of the same substance?
**A.** The RQ3 was 11.584.

**Q.** And the RQ mean ([1]; 24 hr, Laminarin alone)?
**A.** The RQ mean was 12.485.

**Q.** And the RQ1 ([1]; 48 hr, Laminarin + virus)?
**A.** The RQ1 was 13.157.

**Q.** What about the RQ2 ([1]; 48 hr, Laminarin + virus) of the same substance?
**A.** Its RQ2 is 0.7588.

**Q.** And the RQ3 ([1]; 48 hr, Laminarin + virus)?
**A.** Its RQ3 is 11.274.

**Q.** What about the RQ mean ([1]; 48 hr, Laminarin + virus) of the same substance?
**A.** Its RQ mean is 10.673.

**Q.** What about the RQ1 ([1]; 48 hr, Laminarin alone) of the same substance?
**A.** The RQ1 was 12.258.

**Q.** And the RQ2 ([1]; 48 hr, Laminarin alone)?
**A.** The RQ2 was 0.9690.

**Q.** And the RQ3 ([1]; 48 hr, Laminarin alone)?
**A.** The RQ3 was 15.958.

**Q.** What about the RQ mean ([1]; 48 hr, Laminarin alone) of the same substance?
**A.** Its RQ mean is 12.635.

**Q.** And the RQ1 ([1]; 72 hr, Laminarin + virus)?
**A.** Its RQ1 is 48.220.

**Q.** And the RQ2 ([1]; 72 hr, Laminarin + virus)?
**A.** Its RQ2 is 49.687.

**Q.** What about the RQ3 ([1]; 72 hr, Laminarin + virus) of the same substance?
**A.** The RQ3 was 22.018.

**Q.** What about the RQ mean ([1]; 72 hr, Laminarin + virus) of the same substance?
**A.** The RQ mean was 39.975.

**Q.** And the RQ1 ([1]; 72 hr, Laminarin alone)?
**A.** The RQ1 was 24.387.

**Q.** And the RQ2 ([1]; 72 hr, Laminarin alone)?
**A.** The RQ2 was 43.671.

**Q.** What about the RQ3 ([1]; 72 hr, Laminarin alone) of the same substance?
**A.** The RQ3 was 32.797.

**Q.** And the RQ mean ([1]; 72 hr, Laminarin alone)?
**A.** The RQ mean was 33.618.

**Q.** What about the “gene 14 expression compared to TSWV treatment” value ([2]; 0.25% laminarin + TSWV inoculated 24 hrs later) of the same substance?
**A.** The value was “inverted”.

**Q.** And the “gene 14 expression compared to TSWV treatment” value ([2]; 0.25% laminarin alone)?
**A.** Its value is “inverted”.

**Q.** What about the “gene 14 expression” value ([2]; Laminarin alone) of the same substance?
**A.** Its value is “no clear overexpression; also recorded: down regulation”.

**Q.** And the “gene 14 expression” value ([2]; laminarin with TSWV)?
**A.** The value was “down regulation”.

**Q.** And the RQ1 [2, 3]?
**A.** Its RQ1 is 12.337.

**Q.** What about the RQ2 [2, 3] of the same substance?
**A.** The RQ2 was 10.845.

**Q.** What about the RQ3 [2, 3] of the same substance?
**A.** The RQ3 was 11.390.

**Q.** And the RQ mean [2, 3]?
**A.** Its RQ mean is 11.524.

**Q.** And the RQ1 [2, 4]?
**A.** Its RQ1 is 14.800.

**Q.** What about the RQ2 [2, 4] of the same substance?
**A.** The RQ2 was 14.769.

**Q.** And the RQ3 [2, 4]?
**A.** Its RQ3 is 10.304.

**Q.** What about the RQ mean [2, 4] of the same substance?
**A.** Its RQ mean is 13.291.

**Q.** What about the RQ1 [2, 5] of the same substance?
**A.** The RQ1 was 15.741.

**Q.** And the RQ2 [2, 5]?
**A.** The RQ2 was 11.640.

**Q.** What about the RQ3 [2, 5] of the same substance?
**A.** Its RQ3 is 12.032.

**Q.** And the RQ mean [2, 5]?
**A.** The RQ mean was 13.138.

**Q.** And the RQ1 [2, 6]?
**A.** The RQ1 was 10.995.

**Q.** And the RQ2 [2, 6]?
**A.** Its RQ2 is 12.080.

**Q.** What about the RQ3 [2, 6] of the same substance?
**A.** The RQ3 was 12.197.

**Q.** And the RQ mean [2, 6]?
**A.** Its RQ mean is 11.758.

**Q.** What about the RQ1 [2, 7] of the same substance?
**A.** Its RQ1 is 0.3028.

**Q.** What about the RQ2 [2, 7] of the same substance?
**A.** The RQ2 was 0.7177.

**Q.** And the RQ3 [2, 7]?
**A.** The RQ3 was 0.5353.

**Q.** What about the RQ mean [2, 7] of the same substance?
**A.** The RQ mean was 0.5186.

**Q.** What about the RQ1 [2, 8] of the same substance?
**A.** Its RQ1 is 0.5979.

**Q.** What about the RQ2 [2, 8] of the same substance?
**A.** The RQ2 was 0.3384.

**Q.** And the RQ3 [2, 8]?
**A.** The RQ3 was 0.4902.

**Q.** What about the RQ mean [2, 8] of the same substance?
**A.** The RQ mean was 0.4755.

**Q.** And the RQ1 [2, 9]?
**A.** Its RQ1 is 0.2805.

**Q.** And the RQ2 [2, 9]?
**A.** The RQ2 was 0.3706.

**Q.** What about the RQ3 [2, 9] of the same substance?
**A.** Its RQ3 is 0.3064.

**Q.** What about the RQ mean [2, 9] of the same substance?
**A.** Its RQ mean is 0.3192.

**Q.** What about the RQ1 [2, 10] of the same substance?
**A.** The RQ1 was 0.5857.

**Q.** And the RQ2 [2, 10]?
**A.** The RQ2 was 0.5072.

**Q.** What about the RQ3 [2, 10] of the same substance?
**A.** The RQ3 was 0.2692.

**Q.** And the RQ mean [2, 10]?
**A.** Its RQ mean is 0.4540.
